“Also recorded” adds a separate entry of the source.
What was measured:
p65 = test: Western blot of nuclear p65 after TNFα; type: cell-based; conditions: HeLa control cells; 500 μM 1 h pre-treatment; TNFα 10 ng/ml 30 min
Experimental: HeLa control cells were pre-treated with diluent (0.5%) or sulindac (500 μM) for 1 h and stimulated or not with 10 ng/ml TNFα for 30 min. Nuclear and cytosolic fractions were obtained by differential centrifugation. A. Analysis by western blot of cytosolic IKb quantity. The Iκb quantity was expressed in percent of control. […] B. Analysis by western blot of nuclear p65 quantity. Nuclear p65 quantity was expressed in percent of diluents+TNFα.
Nuclear and cytosolic fraction was obtained by differential centrifugation. Briefly, cells were lyses in buffer C (10 mM Hepes, 60 mM KCl, 1 mM EDTA, 7.8% NP40, 100 mM DTT, pH 7.6). After centrifugation, nucleus pellet were lyses in buffer N (27 mM Tris, 566 mM NaCl, 2 mM MgCl2, 1.3 mM EDTA, pH 8). Aliquots of fraction (30 μg protein) were separated by SDS-PAGE and transferred on PVDF membrane. The western blots were probed with mouse monoclonal antibodies specific for IκB or p65 (Santa-Cruz) 2 h at room temperature.

CFTR = CFTR (Homo sapiens, UniProt P13569); test: Short circuit current, cAMP-dependent Cl secretion (forskolin + IBMX) in HNEC; type: cell-based; set-up: Nasal polyps were obtained from non-CF requiring surgery for their nasal polyposis; endogenous in cells; host or cells: primary human nasal epithelial cells (HNEC) from nasal polyps of non-CF patients; conditions: primary HNEC, air-liquid interface, 500 μM basolateral, 2 h, mean SEM of five filters
CFTR, sequence (P13569 whole entry): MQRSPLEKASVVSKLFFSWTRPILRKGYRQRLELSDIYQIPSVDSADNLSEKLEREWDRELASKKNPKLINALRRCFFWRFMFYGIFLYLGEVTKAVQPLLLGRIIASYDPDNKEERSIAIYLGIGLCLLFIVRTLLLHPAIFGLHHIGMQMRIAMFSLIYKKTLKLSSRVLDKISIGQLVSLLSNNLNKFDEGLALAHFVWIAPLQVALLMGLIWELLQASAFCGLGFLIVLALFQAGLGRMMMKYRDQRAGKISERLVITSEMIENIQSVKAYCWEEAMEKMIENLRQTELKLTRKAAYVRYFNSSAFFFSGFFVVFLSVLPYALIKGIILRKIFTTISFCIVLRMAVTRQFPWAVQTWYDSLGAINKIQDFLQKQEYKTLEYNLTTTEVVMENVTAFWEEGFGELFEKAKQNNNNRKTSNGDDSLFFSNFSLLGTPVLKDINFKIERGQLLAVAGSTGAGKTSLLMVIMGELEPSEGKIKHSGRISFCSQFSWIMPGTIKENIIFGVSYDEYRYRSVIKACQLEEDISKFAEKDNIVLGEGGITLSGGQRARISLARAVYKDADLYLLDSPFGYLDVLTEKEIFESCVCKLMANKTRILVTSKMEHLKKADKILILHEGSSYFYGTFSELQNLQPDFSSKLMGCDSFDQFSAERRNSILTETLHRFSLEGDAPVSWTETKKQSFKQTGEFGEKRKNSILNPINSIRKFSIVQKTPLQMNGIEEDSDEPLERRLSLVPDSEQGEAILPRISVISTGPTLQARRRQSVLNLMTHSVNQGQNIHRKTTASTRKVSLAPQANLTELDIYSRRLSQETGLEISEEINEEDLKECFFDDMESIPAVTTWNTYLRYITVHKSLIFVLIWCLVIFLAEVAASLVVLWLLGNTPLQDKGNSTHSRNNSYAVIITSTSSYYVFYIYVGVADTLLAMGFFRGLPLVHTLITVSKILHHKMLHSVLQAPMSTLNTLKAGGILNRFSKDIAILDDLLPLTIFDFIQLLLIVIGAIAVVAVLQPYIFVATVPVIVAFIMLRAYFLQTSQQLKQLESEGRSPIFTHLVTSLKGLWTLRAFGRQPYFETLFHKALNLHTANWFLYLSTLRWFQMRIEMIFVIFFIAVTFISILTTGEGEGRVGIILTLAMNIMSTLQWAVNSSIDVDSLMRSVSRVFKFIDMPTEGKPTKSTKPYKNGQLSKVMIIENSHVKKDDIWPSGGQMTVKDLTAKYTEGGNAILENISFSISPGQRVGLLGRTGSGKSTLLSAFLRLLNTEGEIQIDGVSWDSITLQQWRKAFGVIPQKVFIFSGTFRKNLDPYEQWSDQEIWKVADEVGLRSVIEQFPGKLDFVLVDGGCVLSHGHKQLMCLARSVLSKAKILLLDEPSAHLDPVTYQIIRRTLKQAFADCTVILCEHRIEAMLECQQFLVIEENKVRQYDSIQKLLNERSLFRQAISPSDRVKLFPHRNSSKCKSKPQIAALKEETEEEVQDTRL
Experimental: B. Chloride activity in HeLa Wt cells was measured by MQAE assay, after 3 h of treatment by NSAID (500 μM) or diluent. CFTR activity was expressed in rate of UFA/sec, calculated by difference between ((Ft−F0)/t) with CFTR induction and ((Ft−F0)/t) without CFTR induction. […] C. Primary culture of human nasal epithelial cell (HNEC) grown on Snapwell filters (air-liquid interface) were exposed basolaterally to sulindac (500 μM) or vehicle for 2 h and immediately mounted into a voltage-clamp system to bioelectric measurements. Short circuit current was measured with addition of amiloride to evaluated amiloride sensitive transport or with forskolin and IBMX for induced cAMP-dependent Cl secretion.
Two cell models were used to the interface air-liquid model for ionic efflux assays by short circuit current and to dose the basolateral IL-8 secretion. Calu-3 are derived from lung adenocarcinoma and are able to polarized and express a high rate of endogenous CFTR. […] Transepithelial resistance and transepithelial potential difference were measured every 3 days using a microvoltmeter (World Precision Instruments, Astonbury, UK).
Cells were grown at 37° C. in a 5% CO2 incubator in DMEM with Glutamax (Invitrogen) and 10% fetal bovine serum (SVF). […] The effects of treatment in HNEC cultures on snapwell inserts were evaluated between days 10 and 16. […]

increase of CFTR activity (short circuit current, forskolin + IBMX) (CFTR): increase of CFTR activity
increase of CFTR activity (short circuit current, forskolin + IBMX) (CFTR; listed as Sulindac): 46.35%
Structure (SMILES): CC1=C(CC(=O)O)c2cc(F)ccc2/C1=C\c1ccc([S+](C)[O-])cc1 (stereo not drawn) [sulindac, (Z)-5-fluoro-2-methyl-1-[p-(methylsulfinyl)benzylidene]-indene-3-acetic acid]
nuclear translocation of NF-κB (nuclear p65 quantity) (p65): not significantly modified; also recorded: did not prevent the nuclear translocation of NF-κB

— patent publication US9402821B2, “Methods and pharmaceutical compositions for treatment of cystic fibrosis” (INSERM (Institut National de la sante et de la Recherche …, priority 2012, dated 2016)
